# Reference: patent US6372792B1, “Method for treating anxiety, anxiety disorders and insomnia” (priority 1996, dated 2002)
# Experiments:
# Assay type in all cases: in vivo, human
# [1] = tested on: panic attacks and anxiety disorder; experiment: Case History 3: patient treated with gabapentin; details: for adverse effect: human, in vivo
# Procedure: A person is a single who is working as a freelance writer. […] They were hospitalized because of severe depression and a suicide attempt by drug overdose. The patient has taken lithium since 1973. They have also had panic attacks since 1978.
# In January 1994, the patient was depressed and valproic acid was initiated with lithium and clonazepam. […] Gabapentin 300 mg BID up to 300 mg TID was initiated in their treatment.
# [2] = tested on: fast cycling manic depressive illness with anxiety associated with depression; experiment: Case History 2: patient treated with gabapentin; details: June to December 1992
# Procedure: A person is a retired patient with a family history of bipolar affective illness. The patient has been treated for manic-depressive illness since they experienced their first depressive episode and was hospitalized several times for mania and depression.
# […]), the patient was hospitalized for an episode of acute mania. After that, they were treated with lithium, tryptophan, nicotinamide, clonazepam, Premarin®, Provera® and Overal®. The patient was re-hospitalized for a manic episode […] (1982). They have been treated with various psychotropic drugs, especially: lithium, tryptophan, and clonazepam. Lithium was discontinued in October 1983 until 1985. They were given tryptophan, lecithin and female hormones for control of a severe rapid-cycling bipolar disorder. Fluoxetine, as well as, antiepileptics (carbamazepine and valproic acid) were also added to their treatment.
# Due to the patient's fast cycling manic depressive illness, their medication is regularly adjusted. Since 1991 magnesium was added to their regular medication. […] In April 1993, risperidone was initiated and in March 1994 lithium was discontinued. They are currently treated with risperidone, gabapentin 1800 mg QD (initiated in August 1994), clonazepam and ritanserin was recently added to their treatment in an attempt to improve their mood. They also take magnesium and lecithin.
# [3] = tested on: chronic severe generalized anxiety disorder with marked insomnia and depression; experiment: Case History 1: patient treated with gabapentin; details: initiated at a low dose
# Procedure: The patient is a retired patient. […] In their medical history, there is a cervical laminectomy (1988). They report residual pain and weakness in the right arm and right leg and chronic neck pain. They have a history of three months of depression with no treatment (1989) and a history of chronic severe generalized anxiety disorder.
# In December 1994, the patient had been taking a benzodiazepine, clonazepam 2.5 mg/day, for the last five years when their anxiety and depression became much worse. Anxiety was associated with marked insomnia and significant situational stressors (financial and marital). […] Patient is now functional for the first time in many years. Improvement continues as of this day. […] Improvement persists.
# [4] = tested on: obsessive compulsive disorder (OCD), anxiety, paranoid delusions; experiment: Case History 5: patient treated with gabapentin
# Excerpt: The patient is a single person who is still studying at University. Their medical history is unremarkable. The patient was first seen by a psychiatrist and followed for obsessive compulsive disorder (OCD) in the United Emirates; the patient tended toward isolativeness. Also, they developed a tic disorder and complained of anxiety.
# In February 1994, the patient developed intense paranoid ideation and became more withdrawn. Over the previous two years, the patient had suffered from paranoid delusions and auditory hallucinations. They stopped taking their neuroleptic medication in mid-December while they were a University student. They were admitted as an inpatient in March 1994. […] The patient was discharged with clozapine and lorazepam. In June, the patient was referred for Follow-Up where an anticonvulsant drug, valproic acid was added to potentiate clozapine, but discontinued in August 1994.
# In February 1995, gabapentin was added to the patient's treatment. […] Currently, the patient takes clozpine 125 mg BID, […], gabapentin 500 mg HS and procyclidine 5 mg BID.
smiles,measurement,setting,value
CCCC(CCC)C(=O)O [valproic acid],adverse effect,[1],they were losing their hair
same,depression,"[1]; initiated with lithium and clonazepam, two weeks later",the patient improved
same,adverse effect,[2],the patient was losing hair
CN[C@H]1CC[C@@H](c2ccc(Cl)c(Cl)c2)c2ccccc21 [sertraline],clinical response (anxiety and depression),[3],made the patient worse
CNCCC(Oc1ccc(C(F)(F)F)cc1)c1ccccc1 (stereo not drawn) [Fluoxetine],clinical response (anxiety and depression),[3],made the patient worse
"NCC1(CC(=O)O)CCCCC1 [gabapentin, (1-aminomethyl)-1-cyclohexaneacetic acid]",adverse effect,[1],the patient complained of sedation
same,adverse effect,[4]; during the increase of gabapentin,dizziness during the increase of gabapentin but this subsided
OC(CCN1CCCC1)(c1ccccc1)C1CCCCC1 (stereo not drawn) [procyclidine],akathisia,[4]; procyclidine 5 mg BID,they improved with this medication
Cc1nc2n(c(=O)c1CCN1CCC(c3noc4cc(F)ccc34)CC1)CCCC2 [risperidone],"psychotic symptoms (paranoid delusions, auditory hallucinations)","[4]; inpatient, March 1994",did not improve
